Data from patent publication US20060089395A1, “Nf-kb activation inhibitors” (priority 2002, published 2006).

System: NF-κ B
Assay: Inhibitory activity of NF-κ B activation, luciferase reporter assay in HepG2 under TNF-α stimulation
Type: cell-based, human
Conditions: HepG2, TNF-α (40 ng/ml), 4 hours; for inhibition at 1 µg/mL / inhibition at 10 µg/mL: Homo sapiens; for Inhibitory Ratio of NF-κ B Activation(%) Drug Concentration 1 μg/mL / inhibition at 1 µg/mL: 1 μg/mL; for inhibition at 1 µg/mL: read-out: Inhibitory Ratio of NF-κ B Activation(%) Drug Concentration 1 μg/mL; for Inhibitory Ratio of NF-κ B Activation(%) Drug Concentration 10 μg/mL / inhibition at 10 µg/mL: 10 μg/mL; for inhibition at 10 µg/mL: read-out: Inhibitory Ratio of NF-κ B Activation(%) Drug Concentration 10 μg/mL
Outline: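 Readout is firefly luciferase luminescence, expressed as inhibition versus compound-free wells. Before this, HepG2 cells carrying a transiently transfected 5×NF-κB-site luciferase plasmid (6–24 h post-transfection) received test compound plus TNF-α (40 ng/ml) for 4 h.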

Row | Compound | Inhibitory Ratio of NF-κ B Activation(%) Drug Concentration 1 μg/mL [%] | Inhibitory Ratio of NF-κ B Activation(%) Drug Concentration 10 μg/mL [%] | inhibition at 1 µg/mL [%] | inhibition at 10 µg/mL [%]
1 | O=C(Nc1cc([N+](=O)[O-])ccc1Cl)c1cc(Cl)ccc1O [Compound No. 156] | 93.8 | 95.7 | – | –
2 | O=C(Nc1ccccc1)c1ccc(Cl)c(NC(=O)c2cc(Cl)ccc2O)c1 [Compound No. 157] | 52.6 | 98.8 | – | –
3 | COc1ccc(OC)c(NC(=O)c2cc(Cl)ccc2O)c1 [Compound No. 158] | 52.4 | 96.8 | – | –
4 | COc1ccc(C)c(NC(=O)c2cc(Cl)ccc2O)c1 [Compound No. 160] | 69.6 | 96.5 | – | –
5 | CCCCOc1ccc(OCCCC)c(NC(=O)c2cc(Cl)ccc2O)c1 [Compound No. 161] | 94.2 | 97.6 | – | –
6 | CC(C)CCOc1ccc(OCCC(C)C)c(NC(=O)c2cc(Cl)ccc2O)c1 [Compound No. 162] | 93.8 | 97.9 | – | –
7 | COc1ccc(C(N)=O)cc1NC(=O)c1cc(Cl)ccc1O [Compound No. 163] | 92.1 | 97.4 | – | –
8 | CCC(C)(C)c1ccc(Oc2ccccc2)c(NC(=O)c2cc(Cl)ccc2O)c1 [Compound No. 164] | 97.6 | 98.3 | – | –
9 | CCCCCCOc1ccc(S(C)(=O)=O)cc1NC(=O)c1cc(Cl)ccc1O [Compound No. 165] | 95.9 | 99.4 | – | –
10 | COc1ccc(-n2cccc2)c(NC(=O)c2cc(Cl)ccc2O)c1 [Compound No. 167] | 76.4 | 98.7 | – | –
11 | Cc1ccc(S(=O)(=O)c2ccc(Cl)cc2NC(=O)c2cc(Cl)ccc2O)cc1 [Compound No. 168] | 46.7 | 97.8 | – | –
12 | Cc1ccc(S(=O)(=O)c2ccc(Cl)c(NC(=O)c3cc(Cl)ccc3O)c2)cc1 [Compound No. 169] | 31.6 | 95.9 | – | –
13 | COc1ccc(Oc2ccccc2)cc1NC(=O)c1cc(Cl)ccc1O [Compound No. 171] | 90.6 | 98.1 | – | –
14 | Cc1ccc(-c2ccccc2)cc1NC(=O)c1cc(Cl)ccc1O [Compound No. 172] | 93.7 | 96.4 | – | –
15 | COc1ccc(C(C)(C)c2ccccc2)cc1NC(=O)c1cc(Cl)ccc1O [Compound No. 173] | 86.4 | 98.3 | – | –
16 | O=C(Nc1cc(N2CCOCC2)ccc1[N+](=O)[O-])c1cc(Cl)ccc1O [Compound No. 174] | – | 89.6 | – | –
17 | CCCCc1ccc([N+](=O)[O-])cc1NC(=O)c1cc(Cl)ccc1O [Compound No. 176] | 96.0 | 99.5 | – | –

Row | Compound | Inhibitory Ratio of NF-κ B Activation(%) Drug Concentration 1 μg/mL [%] | Inhibitory Ratio of NF-κ B Activation(%) Drug Concentration 10 μg/mL [%] | inhibition at 1 µg/mL [%] | inhibition at 10 µg/mL [%]
18 | CCC(C)(C)c1ccc(O)c(NC(=O)c2cc(Cl)ccc2O)c1 [Compound No. 177] | 87.8 | 99.4 | – | –
19 | COc1ccc(C)cc1NC(=O)c1cc(Cl)ccc1O [Compound No. 178] | – | 89.7 | – | –
20 | O=C(Nc1cc(F)ccc1F)c1cc(Cl)ccc1O [Compound No. 179] | 92.5 | 93.4 | – | –
21 | O=C(Nc1cc(F)cc(F)c1)c1cc(Cl)ccc1O [Compound No. 180] | 90.7 | 93.7 | – | –
22 | O=C(Nc1cc(Cl)cc(Cl)c1)c1cc2ccccc2cc1O [Compound No. 181] | – | 95.1 | – | –
23 | O=C(Nc1cc(Cl)cc(Cl)c1)c1c(O)ccc2ccccc12 [Compound No. 182] | 85.3 | 90.2 | – | –
24 | COc1ccc(OC)c(NC(=O)c2cc3ccccc3cc2O)c1 [Compound No. 183] | – | 86.8 | – | –
25 | CC(C)(C)c1cc(NC(=O)c2cc(Cl)cnc2O)cc(C(C)(C)C)c1 [Compound No. 184] | 53.6 | 63.8 | – | –
26 | CC(C)(C)c1csc(NC(=O)c2cc(Br)ccc2O)n1 [Compound No. 185, 5-Bromo-N-{4-[(1,1-dimethyl)ethyl]thiazol-2-yl}-2-hydroxybenzamide] | – | – | 88.4 | 95.2
27 | CC(C)(C)c1nc(NC(=O)c2cc(Br)ccc2O)sc1Br [Compound No. 186, 5-Bromo-N-{5-bromo-4-[(1,1-dimethyl)ethyl]thiazol-2-yl}-2-hydroxybenzamide] | – | – | 96.5 | 98.7
28 | CC(C)(C)c1nc(NC(=O)c2cc(Cl)ccc2O)sc1C#N [Compound No. 188, 5-Chloro-N-{5-cyano-4-[(1,1-dimethyl)ethyl]thiazol-2-yl)-2-hydroxybenzamide] | – | – | 92.6 | 92.4
29 | CC(C)(C)c1nc(NC(=O)c2cc(Br)ccc2O)sc1C#N [Compound No. 189] | 20.0 | 93.8 | – | –
30 | Cc1cnc(NC(=O)c2cc(Br)ccc2O)s1 [Compound No. 190] | – | 69.7 | – | –
31 | Cc1nc(NC(=O)c2cc(Br)ccc2O)sc1C [Compound No. 191] | – | 67.2 | – | –
32 | Cc1sc(NC(=O)c2cc(Br)ccc2O)nc1-c1ccccc1 [Compound No. 192] | 83.6 | 94.4 | – | –
33 | Cc1nc(NC(=O)c2cc(Br)ccc2O)sc1-c1ccc(F)cc1 [Compound No. 193, 5-Bromo-N-[4-methyl-5-(4-fluorophenyl)thiazol-2-yl]-2-hydroxybenzamide] | – | – | – | 82
